{"source": "ChEMBL document CHEMBL6103579", "about": "“Antiproliferative activity of selenium-enriched coumarin derivatives on the SK-N-SH neuroblastoma cell line: Mechanistic insights” (Eur J Med Chem, 2025)", "key": {"SK-N-SH [1]": {"system": "SK-N-SH", "experiment": "Inhibition of cell invasion in human SK-N-SH cells at 2 uM measured after 48 hrs by crystal violet staining based microscopic analysis relative to control", "format": "functional"}, "N2a [2]": {"system": "N2a", "experiment": "Antitumor activity against mouse N2a cells implanted in female ICR mouse model assessed as reduction in tumor weight at 10 mg/kg, ip measured upto 8 days (reference value: 0.9 +/-0.26 g)", "format": "functional", "details": "time <= 8 day"}, "[3]": {"experiment": "Antiproliferative activity against human Neuroblastoma cell assessed as inhibition of cell growth incubated for 60 hrs by CCK-8 method", "format": "functional, cell-based"}, "Quadruplex DNA": {"molecular_target": "Quadruplex DNA", "experiment": "Binding affinity to BCL-2 G4 DNA (unknown origin) assessed as dissociation constant by SPR analysis", "format": "nucleic-acid assay"}, "[4]": {"experiment": "Toxicity in female ICR mouse assessed as histomorphological changes in spleen at 10 to 20 mg/kg, ip H and E staining based analysis", "format": "organism-based", "details": "in vivo, dose 10-20 mg/kg"}, "[5]": {"experiment": "Toxicity in female ICR mouse assessed as change in organ coefficient of spleen at 20 mg/kg, ip […] (reference value: 0.006+/-0.002)", "format": "organism-based", "details": "in vivo"}, "SK-N-SH [6]": {"system": "SK-N-SH", "experiment": "Downregulation of caspase-9 expression in human SK-N-SH cells at 3 to 9 uM measured after 48 hrs by Western blot analysis", "format": "functional, cell-based", "details": "dose 3-9 µM"}, "N2a [7]": {"system": "N2a", "experiment": "Antitumor activity against mouse N2a cells implanted in female ICR mouse model assessed as reduction in cell nuclear size at 10 to 20 mg/kg, ip by H and E staining based analysis", "format": "functional, organism-based", "details": "dose 10-20 mg/kg"}, "SK-N-SH [8]": {"system": "SK-N-SH", "experiment": "Induction of mitochondrial dysfunction in human SK-N-SH cells assessed as appearance of blurred mitochondria at 6 uM measured after 48 hrs by fluorescence microscopic analysis", "format": "functional, cell-based"}, "N2a [9]": {"system": "N2a", "experiment": "Antitumor activity against mouse N2a cells implanted in female ICR mouse model assessed as tumor inhibition rate at 10 mg/kg, ip measured upto 8 days relative to control", "format": "functional", "set-up": "scale not given: the % may be the effect or the level left", "details": "time <= 8 day"}, "[10]": {"experiment": "Downregulation of Beta-catenin expression in human SK-N-SH cells at 6 uM measured after 48 hrs by Western blot analysis relative to control", "format": "functional"}, "SK-N-SH [11]": {"system": "SK-N-SH", "experiment": "Antiproliferative activity against human SK-N-SH cells assessed as reduction in cell proliferation at 1 uM incubated for 60 hrs by CCK-8 method relative to control", "format": "functional", "set-up": "scale not given: the % may be the effect or the level left"}, "[12]": {"experiment": "Downregulation of Beta-catenin expression in human SK-N-SH cells at 9 uM measured after 48 hrs by Western blot analysis relative to control", "format": "functional"}, "[13]": {"experiment": "Toxicity in female ICR mouse assessed as change in organ coefficient of heart at 20 mg/kg, ip […] (reference value: 0.006+/-0.002)", "format": "organism-based", "details": "in vivo"}, "SK-N-SH [14]": {"system": "SK-N-SH", "experiment": "Antiproliferative activity against human SK-N-SH cells assessed as reduction in cell proliferation at 2 uM incubated for 60 hrs by CCK-8 method relative to control", "format": "functional", "set-up": "scale not given: the % may be the effect or the level left"}, "[15]": {"experiment": "Toxicity in female ICR mouse assessed as effect on body weight loss at 10 to 20 mg/kg, ip", "format": "organism-based", "details": "in vivo, dose 10-20 mg/kg"}, "SK-N-SH [16]": {"system": "SK-N-SH", "experiment": "(§1) Upregulation of E-cadherin expression in human SK-N-SH cells measured after 48 hrs by Western blot analysis relative to control", "format": "functional", "details": "dose 3-9 µM"}, "[17]": {"experiment": "as §1", "format": "functional", "details": "dose 3-9 µM, at 3 to 9 µM"}, "[18]": {"experiment": "Toxicity in female ICR mouse assessed as change in organ coefficient of lung at 10 mg/kg, ip […] (reference value: 0.007+/-0.001)", "format": "organism-based", "details": "in vivo"}, "[19]": {"experiment": "Toxicity in female ICR mouse assessed as abnormal movement at 10 to 20 mg/kg, ip", "format": "organism-based", "details": "in vivo, dose 10-20 mg/kg"}, "[20]": {"experiment": "Drug localization in cytoplasm of human SK-N-SH cells assessed as increase in green fluorescence at 6 uM measured after 48 hrs by DAPI staining based fluorescence microscopic analysis", "format": "ADME, subcellular"}, "[21]": {"experiment": "Drug localization in mitochondria of living human SK-N-SH cells assessed as colocalization at 6 uM incubated for 48 hrs by DAPI staining based fluorescence microscopic analysis", "format": "ADME"}, "[22]": {"experiment": "Toxicity in female ICR mouse assessed as histomorphological changes in heart at 10 to 20 mg/kg, ip H and E staining based analysis", "format": "organism-based", "details": "in vivo, dose 10-20 mg/kg"}, "SK-N-SH [23]": {"system": "SK-N-SH", "experiment": "Antiproliferative activity against human SK-N-SH cells assessed as reduction in cell proliferation incubated for 60 hrs by CCK-8 method", "format": "functional, cell-based", "details": "dose 0.5-2 µM"}, "SK-N-SH [24]": {"system": "SK-N-SH", "experiment": "Inhibition of cell migration in human SK-N-SH cells at 0.5 to 2 uM measured after 48 hrs by crystal violet staining based microscopic analysis", "format": "functional", "details": "dose 0.5-2 µM"}, "SK-N-SH [25]": {"system": "SK-N-SH", "experiment": "Inhibition of colony formation in human SK-N-SH cells assessed as reduction in colony size at 0.5 to 2 uM preincubated for 24 hrs followed by incubation under compound free medium for 8 days by crystal violet staining based analysis", "format": "functional, cell-based", "details": "dose 0.5-2 µM"}, "[26]": {"experiment": "Downregulation of vimentin expression in human SK-N-SH cells at 3 to 9 uM measured after 48 hrs by Western blot analysis relative to control", "format": "functional", "details": "dose 3-9 µM"}, "N2a [27]": {"system": "N2a", "experiment": "Antitumor activity against mouse N2a cells implanted in female ICR mouse model assessed as suppression of tumor cell proliferation administered as ip dose measured upto 8 days by Ki67 staining based analysis", "format": "functional, organism-based", "details": "dose 10-20 mg/kg, time <= 8.0 day"}, "N2a [28]": {"system": "N2a", "experiment": "Antiproliferative activity against mouse N2a cells assessed as inhibition of cell growth incubated for 60 hrs by CCK-8 method", "format": "functional, cell-based"}, "N2a [29]": {"system": "N2a", "experiment": "Antitumor activity against mouse N2a cells implanted in female ICR mouse model assessed as change in body weight at 20 mg/kg, ip measured upto 8 days (reference value: 25.54 +/-2.19 g)", "format": "functional", "details": "time <= 8 day"}, "N2a [30]": {"system": "N2a", "experiment": "Antitumor activity against mouse N2a cells implanted in female ICR mouse model assessed as change in body weight at 10 mg/kg, ip measured upto 8 days (reference value: 25.54 +/-2.19 g)", "format": "functional", "details": "time <= 8 day"}, "SK-N-SH [31]": {"system": "SK-N-SH", "experiment": "Upregulation of AIF level in human SK-N-SH cells at 6 uM measured after 48 hrs by immunofluorescence staining based microscopic analysis", "format": "functional, cell-based"}}, "note": "The source made the active and inactive calls. No cut-off for these calls is given here.", "data": [{"smiles": "N#C[Se]CCCOc1ccc2cc(C(=O)N3N=C(c4ccc(F)cc4)CC3c3ccc(F)cc3)c(=O)oc2c1", "note": "(configuration not stated)", "values": [{"measurement": "inhibition at 2 µM", "setting": "SK-N-SH [1]", "result": 78.4, "unit": "%"}, {"measurement": "Activity", "setting": "N2a [2]", "result": 0.19, "unit": "g"}, {"measurement": "IC50", "setting": "[3]", "result": 2.5, "unit": "µM"}, {"measurement": "Kd", "setting": "Quadruplex DNA", "result": 0.0785, "unit": "µM"}, {"measurement": "Activity", "setting": "[4]", "result": "Non-toxic"}, {"measurement": "Activity", "setting": "[5]", "result": 0.005}, {"measurement": "Activity", "setting": "SK-N-SH [6]", "result": "Active"}, {"measurement": "Activity", "setting": "N2a [7]", "result": "Active"}, {"measurement": "Activity", "setting": "SK-N-SH [8]", "result": "Active"}, {"measurement": "Activity", "setting": "N2a [9]", "result": 79.1, "unit": "%"}, {"measurement": "Activity", "setting": "[10]", "result": 70.8, "unit": "%"}, {"measurement": "Activity", "setting": "SK-N-SH [11]", "result": 63.8, "unit": "%"}, {"measurement": "Activity", "setting": "[12]", "result": 42.2, "unit": "%"}, {"measurement": "Activity", "setting": "[13]", "result": 0.005}, {"measurement": "Activity", "setting": "SK-N-SH [14]", "result": 81.4, "unit": "%"}, {"measurement": "Activity", "setting": "[15]", "result": "Non-toxic"}, {"measurement": "Activity", "setting": "SK-N-SH [16]", "result": "Dose-dependent-effect"}, {"measurement": "Activity", "setting": "[17]", "result": 32.3, "unit": "%"}, {"measurement": "Activity", "setting": "[18]", "result": 0.007}, {"measurement": "Activity", "setting": "[19]", "result": "Non-toxic"}, {"measurement": "Drug uptake", "setting": "[20]", "result": "Active"}, {"measurement": "Drug uptake", "setting": "[21]", "result": "Active"}, {"measurement": "Activity", "setting": "[22]", "result": "Non-toxic"}, {"measurement": "Activity", "setting": "SK-N-SH [23]", "result": "Dose-dependent-effect"}, {"measurement": "inhibition", "setting": "SK-N-SH [24]", "result": "Active"}, {"measurement": "inhibition", "setting": "SK-N-SH [25]", "result": "Active"}, {"measurement": "Activity", "setting": "[26]", "result": 33.1, "unit": "%"}, {"measurement": "Activity", "setting": "N2a [27]", "result": "Dose-dependent-effect"}, {"measurement": "IC50", "setting": "N2a [28]", "result": 17.9, "unit": "µM"}, {"measurement": "Activity", "setting": "N2a [29]", "result": 26.34, "unit": "g"}, {"measurement": "Activity", "setting": "N2a [30]", "result": 27.2, "unit": "g"}, {"measurement": "Activity", "setting": "SK-N-SH [31]", "result": "Active"}]}]}
